Results on 36 compounds are retold here after PubChem BioAssay AID651563 (Sanford-Burnham Center for Chemical Genomics, 2012).

Activity calls are given as the source filed them.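 How the source made its calls: active means compounds whose IC50 is 20 micromolar or lower, counted as confirmed SKN-1 reporter blockers; inactive means the rest.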

For this assay, the system named is C. elegans VP596 Pgst-4::GFP/RFP ratio, acrylamide, 24 h. Kind of assay: C. elegans gst-4 reporter suppression, concentration series – whole organism, GFP/RFP fluorescence ratio, set 2, strain VP596, SKN-1 inhibitor project, dose response (AID 651563).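 Further: red signal is driven by the dop-3 promoter and serves as the normalizer.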
As usually defined, the IC50 is the point on the concentration scale where inhibition reaches its midpoint. Turning to `Clc1ccc(-c2nc(-c3ccncc3)no2)c(Cl)c1`, the IC50 was > 100 µM (inactive).

`c1ccc(-c2csc(-c3ccncc3)n2)cc1`: the IC50 was 12.6 µM.

Take `CC1=NOC(=O)/C1=C/c1ccc(-c2ccc(Cl)cc2)o1`: the IC50 is > 100 µM (inactive).

With `Clc1ccc(C=Cc2ccccn2)cc1`, the IC50 was 10.4 µM.

Turning to `Clc1ccc(CSc2ncn(-c3ccccc3)n2)cc1`, the IC50 is 11.2 µM.

As to `Brc1ccc2nc(N3CCCC3)sc2c1`, the IC50 was 25.8 µM (inactive).

On to `c1ccc(-n2nnc(-c3nccs3)n2)cc1`, for which the IC50 is > 100 µM (inactive).

On to `CCc1nc2c(OCc3ccc(C(F)(F)F)cc3)cccn2c1N(C)C(=O)c1ccncc1`, for which the IC50 was 3.57 µM.

Consider `O=C(Sc1ccc(Cl)cc1)c1ccccn1`, for which the IC50 was > 100 µM (inactive).

As to `O=C(Nc1ccc(OC(F)F)c(Cl)c1)c1cccc(OC(F)F)c1`, the IC50 is > 100 µM (inactive).

Consider `O=[N+]([O-])c1ccc2nc(-c3ccccc3)oc2c1`, for which the IC50 was 3.84 µM.

`Fc1ccc(-c2cnc(-c3cccs3)o2)cc1`: the IC50 is 27.5 µM (inactive).

In the case of `CN(C)CC(O)c1ccc(C=Cc2ccc(Cl)cc2)cc1` (stereo unspecified), the IC50 was 18.4 µM.

With `O=C(/C=C/c1ccccc1)Nc1ccc(CN2CCOCC2)cc1`, the IC50 is 19.3 µM.

Consider `COc1cc(CNC(C)c2ccccc2)cc(Br)c1OCc1ccc(F)cc1` (stereo unspecified), for which the IC50 was 9.1 µM.

For `CC(=O)NS(=O)(=O)c1ccc(Nc2ccc([N+](=O)[O-])c3nonc23)cc1`, the IC50 is 57.9 µM (inactive).

Regarding `Brc1ccc(-c2nc(-c3ccccc3)no2)o1`, the IC50 was 2.54 µM.

`CCOc1ccc(-c2nc(-c3cccnc3)no2)cc1`: the IC50 was 19 µM.

On to `c1ccc2sc(SCc3ccc(-c4nnco4)cc3)nc2c1`, for which the IC50 was 11.9 µM.

Consider `O=C(Nc1ccc(Cl)c(C(F)(F)F)c1)c1ccco1`, for which the IC50 is 64.4 µM (inactive).

With `O=C(Nc1nc2c(ccc3ccccc32)s1)c1ccco1`, the half-inhibitory concentration (IC50) was 17.7 µM.

Consider `O=C(Nc1ccc(SC(F)F)cc1)c1ccccc1F`, for which the IC50 is 20.3 µM (inactive).

For `c1ccc(-c2nc3cc4ccccc4cc3[nH]2)nc1`, the IC50 is 16.1 µM.

With `Clc1ccsc1-c1ccc2ccccc2n1`, the IC50 was 20.3 µM (inactive).

Regarding `CC(C)(C)N=C1NN=C(c2ccc(Cl)cc2)CS1`, the IC50 was 25.9 µM (inactive).

In the case of `Fc1ccc(-n2nnc(-c3cccnc3)n2)cc1`, the IC50 is 24.8 µM (inactive).

With `c1ccc2oc(SCc3nc4ccccc4s3)nc2c1`, the IC50 was 27.4 µM (inactive).

Consider `Brc1ccc(-c2nnc(-c3ccco3)o2)cc1`, for which the IC50 was 10.8 µM.

As for `O=[N+]([O-])c1ccc(NCc2ccc(Cl)cc2)nc1`, the 50% inhibitory concentration (IC50) was 18.1 µM.

As for `O=C(/C=C/Nc1ccccc1F)c1cccs1`, the IC50 is 27.9 µM (inactive).

Consider `Clc1ccc(-c2nnc(SCc3ccon3)o2)c(Cl)c1`, for which the IC50 was > 100 µM (inactive).

In the case of `c1ccc(Nc2nc(-c3cccs3)cs2)nc1`, the IC50 is 21.7 µM (inactive).

For `Cc1c(N2C(=O)/C(=C\c3ccc(N(C)C)cc3)N(C)C2=S)c(=O)n(-c2ccccc2)n1C`, the IC50 was 16.9 µM.

As to `O=c1cc(-c2ccc(F)cc2)oc2ccccc12`, the half-maximal inhibitory concentration (IC50) was 19.2 µM.

With `Fc1ccc(OCc2nc(-c3cccs3)no2)cc1`, the IC50 was 31.5 µM (inactive).

`O=C(Nc1nccs1)c1ccc2ccccc2n1`: the IC50 was 15.8 µM.
